In patent US20190008810A1, “METHOD FOR PREVENTION, TREATMENT AND ALLEVIATION OF INFECTIOUS DISEASES AND DISORDERS” (REPLICON HEALTH OY, priority 2016, published 2019):

Assays:
[1] = tested on: seasonal flu or similar infectious disease; type: in vivo, human
[2] = tested on: rat primary optic nerve astrocytes; experiment: Cell viability (MTT and LDH assays) of rat primary optic nerve astrocytes; type: cell-based
Procedure: For proving the efficacy of DGA Activation in reducing ROS in infectious disorders an in vitro study using rat primary optic nerve astrocytes has been conducted. […] As an important part of the study the cell viability was estimated 6 hours after tBHP administration by two methods, i.e. LDH and MTT assays. Cell viability was measured using the in-house MTT assay (of Experimentica Ltd., Finland) and CytoTox96 non-radioactive cytotoxicity assay (G1780, Promega) in response to oxidative stress primary optic nerve astrocytes. The production of reactive oxygen species (ROS) was measured using CellROX Green (Invitrogen) and isolate RNA in RNALater solution (Ambion). Prior study preparations to find suitable tBHP concentration: The astrocytes where seeded at 5000 cells per well and allowed to grow for 48 hrs to mimic the study. On day 2 the medium was removed and the cells were exposed to a dose response range of tBHP in fresh medium for 6 hrs. The MTT and LDH assay were performed to assess cell survival using the Victor microplate reader. The raw data was given to patent applicant for assessment. […] After 24 hrs the compounds were removed, and readded with new medium for 1 hr, prior to the administration of 85 μM tBHP (FIG. 3c). […]

CRP = experiment: Blood CRP in discontinuous MPTP/PD disease model; type: in vivo, mice
Procedure: In this Example, CRP results from 3 separate preclinical tests are presented and analyzed. First 4-day CRP test was conducted with 8 healthy mice using individuals as their own controls. Second 7-day CRP test was conducted in discontinuous disease model. And third also 7-day CRP test was conducted in continuous disease model. CRP present in mouse serum samples were analyzed using mouse CRP ELISA kit (GWB-3B960E, Genway Biotech Inc.). All blood samples were collected at the same time of the day.
In two other CRP tests, the effect of the DGA Activation in two disease models, continuous vs. discontinuous was analyzed. In FIG. 4b, results from discontinuous MPTP/PD disease model, and in FIG. 4c, results from continuous IPA/Dry Eye disease model. Logarithmic change of blood CRP during the 7-day disease follow up period of each mouse in all groups was calculated and the averages are presented in FIGS. 4b and 4c. (In both disease models, there was a 4-day priming with 50% DGA dose before activating the disease model and CRP test.)
Brief description of the disease models: 1) continuous IPA -model (see Example 1a) and 2) discontinuous MPTP/PD -model. MPTP (1-methyl-4-phenyl-1,2,3,6-tetrahydropyridine) is a neurotoxin precursor to MPP+, which causes symptoms of Parkinson's disease (PD). […] Diet consumption per cage is monitored carefully before and during the study follow-up period. […]

fever = experiment: Acute fever response in two humans under infection, Example 4; type: in vivo, human
Procedure: FIG. 11: Numerical values of short term reduction in fever in disease after the DGA Activation (administration approximately 300 mg of D-glyceric acid mixed in water as calcium salt (=2× 200 mg of DGAcs). The results in this table are presented graphically in FIG. 5 and explained in Example 4. Additional Notes: 300 mg of D-glyceric acid is more precisely the same as 430 mg of calcium salt dehydrate formulation, because one calcium atom and 2 water molecules make up some 30% of the total molecular weight. *) Reduction in fever materialized but the symptoms of the disease e.g. pain remained. **) Rather stressful “absent day from work arrangements” by e-mail between 0 minutes and 15 minutes' measurements could possibly have kept fever up.
In Example 4 acute 15 min, 30 min, etc. fever responses of the DGA Activation in two individual under viral and/or bacterial infection (subjects S1 and S4 from e.g. Examples 1b-1f) were measured. Results are presented in graphical format in FIG. 5 and in numeric format in FIG. 11. The measurements of body temperatures after the DGA Activation were made in physiological state where infections (diseases) continue but they have nevertheless more or less stabilized. In this kind of a situation the immune system is activated above healthy and/or subclinical level. The objective was to verify possible spillover effects from reduction in inflammation and in oxidative stress towards fever. At the same the target was to gain more info on the size of suitable administration. (Before initiating any human tests full proof of safety was received from 3 week in vivo experiments with rats. The doses used in these clinical tests are at maximum less than 5% of the safe doses with rats in the 3-week safety tests.)

O=C(O)[C@H](O)CO [DGA, D-glyceric acid]
time to alleviation of all symptoms of two-week long infection ([1]; S1): 24 h | time to visible alleviation ([1]; S1): 12 to 24 h | body temperature (fever) ([1]; S1, Monday 0130 pm after 2 doses of 3×200 mg Sunday night and 2×200 mg Monday morning, 37.0 on Sunday): 36.62 celcius | body temperature ([1]; S1, Monday 0700 pm): 36.61 celcius | time until prolonged mild disease state disappeared ([1]; human, in vivo): 2 days | cell viability after tBHP administration ([2]; 85 μM tBHP, 6 hrs): clearly higher | cell viability compared to 0-controls ([2]; in health (0 μM tBHP) and in disease state (85 μM tBHP)): increases in both | survival and health parameters (CRP; 4+7-day administration): improved survival and health parameters | blood CRP change vs 0-control (CRP; 7-day follow up after 4-day priming, p-value=0.015, pairwise p-value=0005): declined statistically significantly | reducing fever due to infection (fever; 2×200 mg oral dose mixed into water): very effective in reducing fever | immediate impact on fever (fever; S1, 1×200 mg, Monday 0908 pm): didn't seem to have any significant immediate impact on fever | return of fever (fever; S1 and S4): returns almost to the starting level in 1 hour or at least in 1.5 hours | time to reduction of fever (fever; S1 and S4, 2×200 mg of DGAcs in water): 15 to 30 min | decline of fever (fever; statistically very significant): modest | decline of blood corticosterone compared to 0-Control (corticosterone, IL-6; 9 mg/kg of body weight/day of DGAcs in feed, 3 weeks, N=30, p-value=0.021): ~40% | fat formation (corticosterone, IL-6; 3-5 week feeding study, N=144): fat formation is not increased | average IL-6 levels compared to 0-control (corticosterone, IL-6; 21-28 days, not statistically significant, p-value=0.12): lower average IL-6 levels | late mortality (corticosterone, IL-6; earlier broiler chicken experiment without infection, 1-2% in other groups): no mortality in DGA groups
